In test [1] the target is T1, bovine serum albumin (BSA) (Bos taurus, UniProt P02769).
T1 construct: gene ALB
The test is described as follows: fluorescence titration ([…] dye, protein varied). The format is binding.

In a further test the target is T2, apomyoglobin (ApoMb) (Equus caballus, UniProt P68082).
T2 construct: gene MB; apo form (heme removed) prepared from equine myoglobin
Kind of test: fluorescence titration ([…] dye, protein varied). Type of test: binding.

For orientation: Kd means the concentration at which binding is half-saturated. Low readings indicate higher affinity, high ones lower affinity.

Molecules are shown by their SMILES.

T1 sequence (P02769 25-607): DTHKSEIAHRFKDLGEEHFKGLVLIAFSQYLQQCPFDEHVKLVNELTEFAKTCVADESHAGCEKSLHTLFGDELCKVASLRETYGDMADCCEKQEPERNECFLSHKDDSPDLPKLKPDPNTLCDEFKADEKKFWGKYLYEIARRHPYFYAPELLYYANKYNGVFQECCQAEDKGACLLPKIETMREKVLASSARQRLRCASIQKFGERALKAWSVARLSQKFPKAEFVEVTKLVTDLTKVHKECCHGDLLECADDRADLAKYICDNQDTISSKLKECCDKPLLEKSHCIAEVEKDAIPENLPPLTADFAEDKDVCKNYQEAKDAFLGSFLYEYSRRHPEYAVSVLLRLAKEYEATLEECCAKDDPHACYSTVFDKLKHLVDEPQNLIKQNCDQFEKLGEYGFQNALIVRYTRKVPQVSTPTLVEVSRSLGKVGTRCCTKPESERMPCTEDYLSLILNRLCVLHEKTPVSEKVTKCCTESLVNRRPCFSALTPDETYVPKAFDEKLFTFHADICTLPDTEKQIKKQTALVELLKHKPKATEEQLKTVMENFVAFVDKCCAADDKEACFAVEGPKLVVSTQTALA
T2 sequence (P68082 2-154): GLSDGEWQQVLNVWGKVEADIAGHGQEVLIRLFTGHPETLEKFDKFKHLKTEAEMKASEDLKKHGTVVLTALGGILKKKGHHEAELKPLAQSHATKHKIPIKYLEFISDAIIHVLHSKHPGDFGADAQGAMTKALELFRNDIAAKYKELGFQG

Regarding `COCCNC1=[N+]2C(=C(c3ccc(OC)cc3)c3ccc(NCCOC)n3[B-]2(F)F)C=C1` [compound 2, HPsensor 2], the Kd was 34 nM in test [1] and 330 nM at apomyoglobin (ApoMb).
